Test results reported in patent publication US10981932B2, “Macrocyclic indole derivatives” (Bayer Aktiengesellschaft, priority 2016, dated 2021).
Where a name gives a salt, the structure may show the parent alone. Read-outs that look alike come from different tables or passages of the source.

Assays:
MCL-1 = MCL-1 (Homo sapiens, UniProt Q07820); experiment: Protein-protein interaction assay MCL-1/Noxa BH3 peptide (MCL-1 assay), TR-FRET; format: binding; conditions: MBP-MCL-1 / Noxa BH3-derived peptide, median
Procedure, shortened: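 TR-FRET, 665/622 nm emission ratio (excitation 330–350 nm), measured MCL-1/Noxa complex formation. 1 nM MBP-MCL-1, 50 mM Tris/HCl pH 7, 0.1% BGG, 2 mM DTT. Incubation 1 h at 22 °C, then overnight at 4 °C. IC50 by 4-parameter regression, normalized to DMSO (0%) and no-MCL-1 (100%) controls.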

SUDHL5 [1] = experiment: Induction of caspase-3/7 activity (Caspase-Glo 3/7), SUDHL5; format: cell-based; conditions: caspase-3/7 induction, SUDHL5 cells, 3 h treatment, median
Procedure, shortened: (§1)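 DLBCL cells treated with compounds for 3 h at 37 °C, then caspase-3/7 activity read by Caspase-Glo 3/7 luminescence. Medium-only background subtracted; EC50 fitted with C0 fixed at 1 and top set to the reference compound's maximal induction.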

SUDHL10 [2] = experiment: Induction of caspase-3/7 activity (Caspase-Glo 3/7), SUDHL10; format: cell-based; conditions: caspase-3/7 induction, SUDHL10 cells, 3 h treatment, median
Procedure, shortened: as §1

SUDHL5 [3] = experiment: Anti-proliferative effect (CellTiter-Glo, 72 h), SUDHL5; format: cell-based; conditions: SUDHL5 cells, antiproliferation, median, read-out: Antiproli SUDHL5 [M] (median)
Procedure, shortened: (§2)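 A time zero plate, read with CellTiter-Glo shortly after seeding, served as baseline; compound-treated plates were incubated 72 h at 37 °C and then read identically by luminescence.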

SUDHL10 [4] = experiment: Anti-proliferative effect (CellTiter-Glo, 72 h), SUDHL10; format: cell-based; conditions: SUDHL10 cells, antiproliferation, median, read-out: Antiproli SUDHL10 [M] (median)
Procedure, shortened: as §2

A2780 = experiment: Anti-proliferative effect (CellTiter-Glo, 72 h), A2780; format: cell-based; conditions: A2780 cells, median, read-out: IC50 antiproliferation assay A2780 [M] (median)
Procedure, shortened: as §2

SUDHL5 [5] = experiment: Induction of cytotoxicity (CellTiter-Glo, 5 h), SUDHL5
Experimental: Therefore, cytotoxicity assays were run in parallel in SUDHL5 and SUDHL10 cells.
The different cell lines were plated in culture medium (RPMI 1640 [GIBCO #22400-089]supplemented with 10% Fetal Bovine Serum) at a density of 3.300 cells in 30 μl/well in a sterile, solid black, flat bottom, polystyrene, TC-treated 384-well microplate (Corning #3571) using Multidrop Combi Reagent Dispenser. As a control, medium without cells was also added to the plate. Cells were incubated in a humidified incubator at 37° C. overnight. On the next day, the cells were treated with compounds (stock solution, 10 mM in DMSO) using the HP D300 Digital Dispenser in a concentration range of 3.3×10e-5 M (33 μM) to 5×10e-9 M (5 nM) in a single-dot curve with at least 16 dilutions and a DMSO concentration of 0.33%. Rim wells were excluded. The cells were incubated for 5 h hours in a humidified incubator at 37° C. After this incubation, 30 μl of CellTiter-Glo@ Luminescent Cell Viability reagent (Promega, G7573) was added to each well using the Multidrop Combi Reagent Dispenser, followed by 15 min incubation on a shaker at room temperature. Finally, luminescence was read at 0.1 ms, with a gain of 3000 using the PHERAstar FS microplate reader (BMG Labtech).
The Bella DRC Master Sheet was used to calculate IC50s, with fixed CI=0 and C0=1.

SUDHL10 [6] = experiment: Induction of cytotoxicity (CellTiter-Glo, 5 h), SUDHL10
[7] = Homo sapiens, SU-DHL-5, 72 h, 72 h incubation
[8] = Homo sapiens, SU-DHL10, 72 h, 72 h incubation
[9] = Homo sapiens, SU-DHL-5, 5 h, read-out: Cytotox SUDHL5 [M] (median), SUDHL5 cells, cytotoxicity induction, CellTiter-Glo, 5 h incubation, median
[10] = Homo sapiens, SU-DHL10, 5 h, read-out: Cytotox SUDHL10 [M] (median), SUDHL10 cells, cytotoxicity induction, CellTiter-Glo, 5 h incubation, median

Sequence of MCL-1 (Q07820 whole entry): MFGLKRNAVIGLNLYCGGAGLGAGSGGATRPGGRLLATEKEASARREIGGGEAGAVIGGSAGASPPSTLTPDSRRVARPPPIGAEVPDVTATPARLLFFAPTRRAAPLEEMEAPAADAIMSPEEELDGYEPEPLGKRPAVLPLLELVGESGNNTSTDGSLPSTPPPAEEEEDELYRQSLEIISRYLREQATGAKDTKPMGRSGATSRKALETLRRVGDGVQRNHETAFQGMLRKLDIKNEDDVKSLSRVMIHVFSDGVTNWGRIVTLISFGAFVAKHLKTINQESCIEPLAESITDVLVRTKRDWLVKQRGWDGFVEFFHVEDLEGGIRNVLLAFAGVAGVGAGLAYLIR

Row | Structure (SMILES) | IC50 (MCL-1) | EC50 (SUDHL5 [1]; Homo sapiens, SU-DHL-5, 3 h) | EC50 (SUDHL10 [2]; Homo sapiens, SU-DHL10, 3 h) | IC50 (SUDHL5 [3]; [7]) | IC50 (SUDHL10 [4]; [8]) | IC50 (A2780; Homo sapiens, A2780, 72 h) | IC50 (SUDHL5 [5]; [9]) | IC50 (SUDHL10 [6]; [10]) | IC50 (A2780) | IC50 (SUDHL5 [3]; Homo sapiens, SU-DHL-5, 72 h, 72 h) | IC50 (SUDHL10 [4]; Homo sapiens, SU-DHL10, 72 h, 72 h) | IC50 (SUDHL5 [5]; Homo sapiens, SU-DHL-5, 5 h, read-out: Cytotox SUDHL5 [M] (median), SUDHL5 cells, cytotoxicity induction, CellTiter-Glo, 5 h, median) | IC50 (SUDHL10 [6]; Homo sapiens, SU-DHL10, 5 h, read-out: Cytotox SUDHL10 [M] (median), SUDHL10 cells, cytotoxicity induction, CellTiter-Glo, 5 h, median) | EC50 (SUDHL5 [1]) | EC50 (SUDHL10 [2]) | IC50 (SUDHL5 [3]; 72 h) | IC50 (SUDHL10 [4]; 72 h) | IC50 (SUDHL5 [5]; read-out: Cytotox SUDHL5 [M] (median), SUDHL5 cells, cytotoxicity induction, CellTiter-Glo, 5 h, median) | IC50 (SUDHL10 [6]; read-out: Cytotox SUDHL10 [M] (median), SUDHL10 cells, cytotoxicity induction, CellTiter-Glo, 5 h, median) | IC50 (SUDHL5 [3]; 72 h incubation)
1 | Cc1nn(C)c2c1-c1cccc3c(CCCOc4cccc5cc(Cl)ccc45)c(C(=O)O)n(c13)CCCCOC2 (racemic) [Example 040, (rac)-7-{3-[(6-chloronaphthalen-1-yl)oxy]propyl}-1,3-dimethyl-1,10,11,12,13,15-hexahydropyrazolo[4′,3′:9,10][1,6]oxazacycloundecino[8,7,6-hi]indole-8-carboxylic Acid] | 14.4 nM | 21 µM | > 33 µM | 1.33e-05 M | 3.25e-06 M | 1.9e-05 M | 1.66e-05 M | > 3.3e-05 M |  |  |  |  |  |  |  |  |  |  |  | 
2 | O=C(O)c1c(CCCOc2cccc3ccccc23)c2cccc3c2n1CCCCOCc1nn2c(c1-3)OCCC2 (racemic) [Example 247, (rac)-1-[3-(naphthalen-1-yloxy)propyl]-4,5,6,7,13,14-hexahydro-9H,12H-[1,3]oxazino[3″,2″: 1′,5′]pyrazolo[4′,3′:9,10][1,6]oxazacycloundecino[8,7,6-hi]indole-2-carboxylic Acid] | 6.15 nM | 5.21 µM | 17.3 µM | 5.26e-06 M | 9.3e-06 M | 3.04e-05 M | 6.79e-06 M | 1.9e-05 M | > 3.3e-05 M |  |  |  |  |  |  |  |  |  |  | 
3 | CC(=O)NCc1nn(C)c2c1-c1cccc3c(CCCOc4cccc5ccccc45)c(C(=O)O)n(c13)CCCCOC2 (single isomer, unassigned; enantiomer 1) [Example 340, 3-[(acetylamino)methyl]-1-methyl-7-[3-(naphthalen-1-yloxy)propyl]-1,10,11,12,13,15-hexahydropyrazolo[4′3′:9,10][1,6]oxazacycloundecino[8,7,6-hi]indole-carboxylic Acid (Enantiomer 1)] | 21.9 nM | 21.1 µM | > 33 µM |  |  | > 3.3e-05 M |  |  |  | 4.71e-06 M | > 3.3e-05 M | 1.56e-05 M | > 3.3e-05 M |  |  |  |  |  |  | 
4 | Cn1nc(COc2ccc(NS(C)(=O)=O)cc2)c2c1COCCCCn1c(C(=O)O)c(CCCOc3cccc4ccccc34)c3cccc-2c31 (single isomer, unassigned; enantiomer 2) [Example 323, 1-methyl-3-({4-[(methylsulfonyl)amino]phenoxy}methyl)-7-[3-(naphthalen-1-yloxy)propyl]-1,10,11,12,13,15-hexahydropyrazolo[4′,3′:9,10][1,6]oxazacycloundecino[8,7,6-hi]indole-8-carboxylic acid-N-ethylethanamine Salt (Enantiomer 2)] | 320 nM |  |  |  |  |  |  |  | 2.18e-05 M |  |  |  |  | > 33 µM | > 33 µM | 1.32e-05 M | 1.36e-05 M | > 3.3e-05 M | > 3.3e-05 M | 
5 | Cn1nc(CCN2CCOCC2)c2c1COCCCCn1c(C(=O)O)c(CCCOc3cccc4ccccc34)c3cccc-2c31 (single isomer, unassigned; enantiomer 1) [Example 151, 1-methyl-3-[2-(morpholin-4-yl)ethyl]-7-[3-(naphthalen-1-yloxy)propyl]-1,10,11,12,13,15-hexahydropyrazolo[4′,3′:9,10][1,6]oxazacycloundecino[8,7,6-hi]indole-8-carboxylic acid-N-ethylethanamine Salt (Enantiomer 1)] | 13.3 nM | 27.5 µM | > 33 µM |  | 2.01e-05 M | > 3.3e-05 M | 1.91e-05 M | > 3.3e-05 M |  |  |  |  |  |  |  |  |  |  |  | > 3.3e-06 M
